System: patients after acute myocardial infarction
Assay: Life quality, Seattle Angina Questionnaire (SAQ), same clinical trial
Type: in vivo, human
Details: 12 months after treatment
Description: 3508 patients who were in accordance with the diagnostic standards of AMI for 28 days to 2 years and differentiated as Qi deficiency and blood stagnation syndrome by TCM were studied. 0.5 g Chinese medicine composition prepared by the method of EXAMPLE 1 (Coded as QSYQ) was administrated half an hour after meal, 3 times per day.
There were 19 questions in the Seattle angina questionnaire (SAQ), including 5 parts: physical limitation (PL), anginal stability (AS), anginal frequency (AF), treatment satisfaction (TS) and disease perception (DP). After being given necessary explanation by doctors, the questions were answered independently by patients.
They included the overall survival time, angina pectoris score, TCM symptom score and life quality score, where angina pectoris score, TCM symptom score and life quality score were evaluated at randomization, in 1st, 3rd, 6th, 9th, 12th month after treatment and 18th month after follow-up.
All evaluation results of SAQ were described during the period of observation, and Wilcoxon rank sum test was used for inter-group comparison.
The evaluation results in the SAQ were depicted in different observations, and inter-group comparison was tested by Wilcoxon Rank-sum test.

CC(=O)Oc1ccccc1C(=O)O [Control group, aspirine]
SAQ Question 1-5: Not limited, number of patients (FAS): 863 | SAQ Question 1-5: Not limited, percent of patients (FAS): (49.51%) | SAQ Question 1-5: Other reasons, number of patients (FAS): 11 | SAQ Question 1-5: Other reasons, percent of patients (FAS): (0.63%) | SAQ Question 1-5: Severely limited, number of patients (FAS): 13 | SAQ Question 1-5: Severely limited, percent of patients (FAS): (0.75%) | SAQ Question 1-5: Slightly limited, number of patients (FAS): 517 | SAQ Question 1-5: Slightly limited, percent of patients (FAS): (29.66%) | SAQ Question 1-9: Mildly limited, % of cases (FAS): (19.60%) | SAQ Question 1-9: Mildly limited, cases (FAS): 336 | SAQ Question 1-9: Moderately limited, % of cases (FAS): (20.42%) | SAQ Question 1-9: Moderately limited, cases (FAS): 350 | SAQ Question 1-9: Not limited, % of cases (FAS): (4.55%) | SAQ Question 1-9: Not limited, cases (FAS): 78 | SAQ Question 1-9: Other reasons, % of cases (FAS): (5.89%) | SAQ Question 1-9: Other reasons, cases (FAS): 101 | SAQ Question 1-9: Severely limited, % of cases (FAS): (31.62%) | SAQ Question 1-9: Severely limited, cases (FAS): 542 | SAQ Question 1-9: Slightly limited, % of cases (FAS): (17.91%) | SAQ Question 1-9: Slightly limited, cases (FAS): 307 | SAQ 2nd question: Clearly increased, % of cases (PP): (0.14%) | SAQ 2nd question: Clearly increased, cases (PP): 2 | SAQ 2nd question: Clearly reduced, % of cases (PP): (30.04%) | SAQ 2nd question: Clearly reduced, cases (PP): 428 | SAQ 2nd question: Same, % of cases (PP): (37.05%) | SAQ 2nd question: Same, cases (PP): 528 | SAQ 2nd question: Slightly increased, % of cases (PP): (1.96%) | SAQ 2nd question: Slightly increased, cases (PP): 28 | SAQ 2nd question: Slightly reduced, % of cases (PP): (30.81%) | SAQ 2nd question: Slightly reduced, cases (PP): 439 | SAQ 3rd question: 1-2 times per week, % of cases (PP): (30.81%) | SAQ 3rd question: 1-2 times per week, cases (PP): 439 | SAQ 3rd question: 1-3 times per day, % of cases (PP): (1.96%) | SAQ 3rd question: 1-3 times per day, cases (PP): 28 | SAQ 3rd question: <1 time per week, % of cases (PP): (30.04%) | SAQ 3rd question: <1 time per week, cases (PP): 428 | SAQ 3rd question: No onset, % of cases (PP): (0.00%) | SAQ 3rd question: No onset, cases (PP): 0 | SAQ 3rd question: ≧3 times per week, % of cases (PP): (37.05%) | SAQ 3rd question: ≧3 times per week, cases (PP): 528 | SAQ 3rd question: ≧4 times per day, % of cases (PP): (0.14%) | SAQ 3rd question: ≧4 times per day, cases (PP): 2 | SAQ Question 1-3: Mildly limited, number of patients (PP): 30 | SAQ Question 1-3: Mildly limited, percent of patients (PP): (2.11%) | SAQ Question 1-3: Moderately limited, number of patients (PP): 3 | SAQ Question 1-3: Moderately limited, percent of patients (PP): (0.21%) | SAQ Question 1-3: Not limited, number of patients (PP): 1225 | SAQ Question 1-3: Not limited, percent of patients (PP): (86.03%) | SAQ Question 1-3: Other reasons, number of patients (PP): 8 | SAQ Question 1-3: Other reasons, percent of patients (PP): (0.56%) | SAQ Question 1-3: Severely limited, number of patients (PP): 1 | SAQ Question 1-3: Severely limited, percent of patients (PP): (0.07%) | SAQ Question 1-3: Slightly limited, number of patients (PP): 157 | SAQ Question 1-3: Slightly limited, percent of patients (PP): (11.03%) | SAQ Question 1-4: Mildly limited, number of patients (PP): 177 | SAQ Question 1-4: Mildly limited, percent of patients (PP): (12.43%) | SAQ Question 1-4: Moderately limited, number of patients (PP): 41 | SAQ Question 1-4: Moderately limited, percent of patients (PP): (2.88%) | SAQ Question 1-4: Not limited, number of patients (PP): 724 | SAQ Question 1-4: Not limited, percent of patients (PP): (50.84%) | SAQ Question 1-4: Other reasons, number of patients (PP): 11 | SAQ Question 1-4: Other reasons, percent of patients (PP): (0.77%) | SAQ Question 1-4: Severely limited, number of patients (PP): 2 | SAQ Question 1-4: Severely limited, percent of patients (PP): (0.14%) | SAQ Question 1-4: Slightly limited, number of patients (PP): 469 | SAQ Question 1-4: Slightly limited, percent of patients (PP): (32.94%) | SAQ Question 1-5: Mildly limited, number of patients (PP): 198 | SAQ Question 1-5: Mildly limited, percent of patients (PP): (13.93%) | SAQ Question 1-5: Moderately limited, number of patients (PP): 52 | SAQ Question 1-5: Moderately limited, percent of patients (PP): (3.66%) | SAQ Question 1-5: Not limited, number of patients (PP): 736 | SAQ Question 1-5: Not limited, percent of patients (PP): (51.79%) | SAQ Question 1-5: Other reasons, number of patients (PP): 10 | SAQ Question 1-5: Other reasons, percent of patients (PP): (0.70%) | SAQ Question 1-5: Severely limited, number of patients (PP): 3 | SAQ Question 1-5: Severely limited, percent of patients (PP): (0.21%) | SAQ Question 1-5: Slightly limited, number of patients (PP): 422

From US9211310B2, “Use of a Chinese medicine composition in preparing medicaments for treating secondary prevention of myocardial infarction” (TASLY PHARMACEUTICAL GROUP CO., LTD, priority 2010, dated 2015)
